From patent publication US8372808B2, “Suppression of glial fibrillary acidic protein” (Wisconsin Alumni Research Foundation, priority 2008, dated 2013)
Structures can show the parent of a compound that is named as a salt. Where two headings read alike, the source gives them in different places.

Tests used:
[1] = tested on: 2.2 kb human GFAP promoter; assay: hGFAP promoter luciferase activity assay in 172.9 cells (primary astrocytes from dual luciferase transgenic mice); type: cell-based; settings: for % GFAP reductions, luciferace expression from hGFAP promoter: tertiary screen, 48 hr exposure, at the MTDcc; for suppression in the promoter assay: secondary screen, 10 μM, 48 hours
Experimental: Cell-based assays were performed as four different screens using enriched cortical primary astrocyte cultures developed from transgenic mice expressing both firefly and Renilla luciferase reporter genes were generated. Briefly, the'firefly luciferase was placed under the control of a 2.2 kb human GFAP promoter to monitor GFAP transcription, and the Renilla luciferase was placed under the control of a 0.5 kb human GAPDH (glyceraldehyde 3-phosphate dehydrogenase) promoter to monitor transcription of a housekeeping gene for signal normalization. See section B, below for more detail regarding the development of transgenic mouse strains. Cells used in the following examples (e.g., the cortical primary astrocyte cells termed “172.9 cells,” described below) were developed from the transgenic mice described in section B.
Briefly, the cortices from individual pups were freed of meninges and placed into DMEM (Gibco) without serum, mechanically disassociated into single cells, suspended in medium containing DMEM supplemented with 10% fetal bovine serum (FBS; Hyclone), 100 U/ml penicillin, 100 μg/ml streptomycin (Gibco), seeded into T25 flasks (one brain per flask), and maintained in a humidified 5% CO2 atmosphere at 37° C. […] Medium was changed every 3 days. At 14-16 days in vitro (DIV), the flasks were shaken overnight at 200 rpm to remove oligodendrocytes and microglia. […] The cells were then suspended in DMEM with 10% FBS and plated (“passage 2”) on either 35 mm dishes, […], or 96-well plates (Corning) as needed. Cells were grown for varying days in vitro (DIV) at passage 2 and then used for various experiments. Tissue culture dishes and plates were pre-coated with 100 μg/ml poly-L-lysine for 1 h in a humidified 5% CO2 atmosphere at 37° C., and then allowed to air dry. […] Cell density was measured with the Vi-CELL cell counter (Beckman Coulter) or hemocytometer by the trypan-blue exclusion method. For simplicity, cells are referred to as “172.9 cells.”
Briefly, 172.9 cells were plated on poly-L coated white 96-well plates at a density of 5000 cells per well, in 100 μl DMEM with 10% FBS. At twenty-four hours, cells were exposed to the different compounds at a final concentration of 10 μM (diluted from a 50 mM stock) prepared in new medium (DMEM with 10% FBS). […] After exposure to compounds, luciferase activity in the primary and secondary screenings was determined by adding 30 μl of Bright-Glo™ reagent (Promega) to the 100 μl of media and cells of each well in the white 96-well plates with the Biomek® FX liquid handler (Beckman Coulter). After incubation for 1 minute at room temperature, signals were measured with the Safire 2 plate reader using Magellan™ software (Tecan). Other specific methods and equipment are known in the art and can be used to measure luciferase expression levels. This assay method is termed the “hGFAP promoter luciferase activity assay.” A reduction in luciferase expression as determined by this assay is termed “hGFAP promoter luciferase reduction.” For some assays that were aimed at confirming results of the initial screens, the same amount of Bright-Glo™ reagent was applied to each well in 96-well plates and signals were detected with the GloRunner™ Microplate Luminometer (Turner Biosystems) using the Dual-Glo® luciferase assay according to the manufacturer's recommendations (E1910, Promega).
In the secondary screen, cells were plated in a 96-well plate as described above for the primary screen.
Some compounds were unavailable outside of the library collections, and could not be further tested.
Each compound and concentration was analyzed in quadruplicate wells.
Compounds were tested at eight different concentrations ranging from 0-20 μM. In addition, GFAP protein levels were measured using a sandwich ELISA, which has greater sensitivity and is more accurate than the cell-based ELISA used in the primary screens.

172.9 cells = assay: cell viability (CellTiter-Glo) / MTDcc in 172.9 cells
Experimental: Criterion for acceptable viability was >70% survival.
Cell viability was determined as follows. After exposure to each compound (duplicate wells per compound), 50 μl of CellTitier-Glo Luminescent Cell Viability Assay reagent (G7571, Promega) was added to the 100 μl of media present in each well, and the luminescent signal (reflecting intracellular ATP level) was detected with either a Victor 3-V plate reader (Perkin Elmer) or GloRunner Microplate Luminometer (Turner Biosystems). Cell viability was expressed as a percent of non-treated control cells.
A dose-response curve was created for each compound (0.1, 0.5, 1, 5, 10, 15, 20 μM) using 48 hr exposures. The MTDcc (“maximum tolerated dose—cell culture”) indicates the highest concentration that retained at least 70% cell viability. Each compound and concentration was analyzed in quadruplicate wells. EGCDG: epigallocatechin 3,5-digallate; NPPB: 5-nitro-2-phenylproplyaminobenzoic acid. As used herein, MTDcc refers to the MTD as determined by this assay under the above conditions.

mGFAP protein = assay: cell-based GFAP protein level assay (cell-based ELISA) in 172.9 cells; design: species or system mouse; settings: for % GFAP reductions, mGFAP protein via ELISA: tertiary screen, 48 hr exposure, at the MTDcc; for suppression in the protein assay: secondary screen, 10 μM, 48 hours
[2] = tertiary screen, 48 hr exposure, 0.1-20 μM, highest concentration that retained at least 70% cell viability

| Compound | % GFAP reductions, luciferace expression from hGFAP promoter [1] [%] | MTDcc (172.9 cells; mouse, 48 h) [µM] | % GFAP reductions, mGFAP protein via ELISA (mGFAP protein) [%] | suppression in the promoter assay [1] | suppression in the protein assay (mGFAP protein) | MTDcc (172.9 cells; [2]) [µM] | MTDcc (172.9 cells) [µM] |
| --- | --- | --- | --- | --- | --- | --- | --- |
| CC(NCCc1ccc(O)cc1)C(O)c1ccc(O)cc1 (stereo not shown) [ritodrine] | 16 | >20 | 5.2 |  |  |  |  |
| CC1(C)C(=O)C=C[C@]2(C)[C@H]3CC[C@@]4(C)[C@H](c5ccoc5)OC(=O)[C@H]5O[C@]54[C@]3(C)C=C[C@@H]12 [7-desacetoxy-6,7-dehydrogedunin] |  |  |  | significant suppression | significant suppression |  |  |
| OCCN1CCN(CCCN2c3ccccc3Sc3ccc(C(F)(F)F)cc32)CC1 [fluphenazine] | 23 | 7.5 | −6.7 |  |  |  |  |
| O=C(O)c1cc([N+](=O)[O-])ccc1NCCCc1ccccc1 [5-nitro-2-phenylproplyaminobenzoic acid] | 16 |  | 0.4 |  |  | >20 |  |
| pyrogallin | 22 |  | 3.3 |  |  | >20 |  |
| CCCCC(CC)CN1CN(CC(CC)CCCC)CC(C)(N)C1 (stereo not shown) [hexetidine] | 26 | >20 | 6.4 |  |  |  |  |
| CC/C(=C(\c1ccccc1)c1ccc(OCCN(C)C)cc1)c1ccccc1 [tamoxifen citrate] | 52 | 7.5 | 21.6 |  |  |  |  |
| COc1ccc(C(=O)O)cc1OC [veratic acid] | 6 |  | −0.8 |  |  | >20 |  |
| O=C(N[C@H](CO)[C@H](O)c1ccc([N+](=O)[O-])cc1)C(Cl)Cl [chloramphenicol] | 16 | >20 | 0.9 |  |  |  |  |
| CSc1ccc2c(c1)N(CCC1CCCCN1C)c1ccccc1S2 (stereo not shown) [thioridazine] | 37 | 5 | 17.7 |  |  |  |  |
| COc1ccc2c(c1)O[C@@H]1COc3cc(OC)c(OC)cc3[C@@H]1C2=O [mundoserone] | 50 | >20 | 1.6 | significant suppression | significant suppression |  |  |
| CN(C)/N=N/c1[nH]cnc1C(N)=O [decarbazine] | 7 | >20 | 2.4 |  |  |  |  |
| NC[C@H]1O[C@H](O[C@H]2[C@H](O)[C@@H](O[C@H]3O[C@H](CO)[C@@H](O)[C@H](N)[C@H]3O)[C@H](N)C[C@@H]2N)[C@H](O)[C@@H](O)[C@@H]1O [kanamycin] | 22 | >20 | 11.3 |  |  |  |  |
| COC(=O)[C@H](O)[C@H]1C(C)(C)[C@H](OC(C)=O)[C@@H]2CC3=C4CC(=O)O[C@@H](c5ccoc5)[C@]4(C)CC[C@@H]3[C@@]1(C)C2=O [swietenolide-3-acetate] | 8 |  | 0.7 |  |  |  | >20 |
| CN(CC(=O)O)C(=N)NP(=O)(O)O [phosphocreatine] | 13 |  | 3.8 |  |  | >20 |  |
| CC(C)(CO)[C@@H](O)C(=O)NCCC(=O)O [pantothenic acid] | 6 | >20 | −3.5 |  |  |  |  |

| Compound | % GFAP reductions, luciferace expression from hGFAP promoter [1] [%] | MTDcc (172.9 cells; mouse, 48 h) [µM] | % GFAP reductions, mGFAP protein via ELISA (mGFAP protein) [%] | suppression in the promoter assay [1] | suppression in the protein assay (mGFAP protein) | MTDcc (172.9 cells; [2]) [µM] | MTDcc (172.9 cells) [µM] |
| --- | --- | --- | --- | --- | --- | --- | --- |
| CC(C)(C)c1ccc(C(O)CCCN2CCC(C(O)(c3ccccc3)c3ccccc3)CC2)cc1 (stereo not shown) [terfenadine] | 14 | 2.5 |  |  |  |  |  |
| C=C1CC[C@H](O)C/C1=C/C=C1\CCC[C@]2(C)[C@@H]([C@H](C)CCCC(C)C)CC[C@@H]12 [colecalciferol] | 24 |  | −4.9 |  |  | >20 |  |
| CCOC(=O)C1=C(COCCN)NC(C)=C(C(=O)OC)C1c1ccccc1Cl (stereo not shown) [amlodipine besylate] |  |  |  | significant suppression | significant suppression |  |  |
| CCC(=O)O[C@]1(C(=O)CCl)[C@@H](C)C[C@H]2[C@@H]3CCC4=CC(=O)C=C[C@]4(C)[C@@]3(F)[C@@H](O)C[C@@]21C [clobetasol propionate] | 25 | >20 | −7.6 |  |  |  |  |
| CCOC(=O)C1=C(COCCN)NC(C)=C(C(=O)OC)C1c1ccccc1Cl (stereo not shown) [amlodipine] | 44 |  |  |  |  | 12.5 |  |
| CN(C)CC/C=C1/c2ccccc2Sc2ccc(Cl)cc21 [chlorprothixene] | 60 | 17.5 | −3.6 |  |  |  |  |
| COP(=S)(OC)SCn1nnc2ccccc2c1=O [azinphos methyl] | 18 |  | 4.7 |  |  | >20 |  |
| Cc1nc2sccn2c(=O)c1CCN1CCC(=C(c2ccc(F)cc2)c2ccc(F)cc2)CC1 [ritanserin] | 29 | 12.5 | 9.6 |  |  |  |  |
| C=C(C)[C@@H]1CC[C@]2(C(=O)O)CC[C@]3(C)[C@H](CC[C@@H]4[C@@]5(C)CC[C@H](O)C(C)(C)[C@@H]5CC[C@]43C)[C@@H]12 [betulinic acid] | 13 | >20 | 6.3 |  |  |  |  |
| O=C1CCCN1CC#CCN1CCCC1 [oxotremorine] | 16 |  | 2.7 |  |  | >20 |  |
| C[C@]12CC[C@@H]3c4ccc(OC(=O)c5ccccc5)cc4CC[C@H]3[C@@H]1CC[C@@H]2O [estradiol benzoate] | 26 | >20 | −2.8 |  |  |  |  |
| CN1CCC(=C2c3ccccc3CC(=O)c3sccc32)CC1 [ketotifen] | 25 | >20 | 8.6 |  |  |  |  |
| CCOP(=S)(OCC)Oc1ccc2c(C)c(Cl)c(=O)oc2c1 [coumophos] | 10 |  | 0.4 |  |  |  | >20 |
| Cc1cc(O)c2c(c1)C(=O)c1cccc(O)c1C2=O [chrysophanol] | 66 |  | 18.6 |  |  | 12.5 |  |
| methylnorlichexanthone | 10 |  | 0.6 |  |  | >20 |  |
